Values quoted from earlier work as cited in patent US20130102943A1, “RELOADABLE FINISHES FOR TEXTILES AND FORMULATIONS FOR LOADING SUCH FINISHES” (SCHOELLER TEXTIL AG, priority 2009, published 2013).

Test system: gram-negative and gram-positive bacteria, as well as yeasts and molds

## CCCCCCCCCCCC(=O)N[C@@H](CCCNC(=N)N)C(=O)OCC.Cl [Lauroyl arginate, Ethyl-N-alpha-lauroyl-L-arginate HCl]
  antimicrobial effectiveness: effective
